Series [1] deals with T1, hTRPV3 (Homo sapiens (Human), UniProt Q8NET8). As to the kind of experiment: Semi-auto patch clamp recording in nHEK cells (WT or TRPV3-mu transfected). In kind it is cell-based. Here is the method:
Compounds were tested at room temperature using the whole-cell patch clamp technique with a HEKA EPC 10 usb patch-clamp amplifier (HEKA Elektronik, Germany). Output signals from the amplifier were digitized and recorded with PatchMaster (v2x90.5 HEKA Elektronik, Germany). For quality control, the minimum seal resistance was set at 100 MΩ, and the outward current was stabilized with at least 1 nA of rectifying current at +80 mV while the inward current was stabilized with at least 300 pA of rectifying current at −80 mV.
NPC-1 Chips (Nanion, Germany) were used to trap a single cell. For both WT or transfected cells, chips of the categories 2-3 MOhm and 3-5 MOhm were used. Chips are disposable and each recording required a new chip. 5 μl of internal solution was applied in the inner pore of the chip, then it was screwed on top of the inner electrode. The upper unit of the patch lamp device was assembled over the chip, and 15 μl external buffer were added between the chip pore and the external electrode.
Basal nHEK cells at Passage 2 or 3 and at the density of 70-90% confluency were used for patch clamp or transfection. For patch-clamp, cells were suspended in TrypLE enzyme for 5 min in 37° C., and then harvested using KBM-Gold media. Cells were then centrifuged for 5 min at 110 g RT. Supernatant was then removed, and cells were re-suspended in the KBM-Gold media and maintained at RT until patch-clamp. After patch clamp system was initialized, and once cell was capture on the chip, media was washed together with free cells, and replaced by external buffer. For TRPV3-mu transfected cells, cells were maintained in KBM-Gold media containing 3 uM of the tested antagonist.
nHEK cells were transfected according to SOP KP-Lab-001.For patch clamp, cells were seeded in 12 well plate and harvested 24 hours after transfection according to the SOP section 2.8.2 “Cell preparation for patch clamp”.
For WT nHEK cells, the “intermediate protocol” in the semi-automatic Port-a-Patch device software was selected based on the parameters: initial sealing, measured by resistance, and its ability to maintain sealing along with assay.
The procedure was started with the “Startup procedure” protocol that validates chip contact and adjusts offset, then after the system was ready, 5 μl of cells suspended in extracellular buffer was added and the intermediate protocol was automatically launched.
When a cell was trapped by vacuum, the value “v-membrane” was raised by 100%, then 15 μl of sealing solution was added. The procedure continued automatically through all its steps until the final step “maintain the whole-cell”. At this step, the sealing solution was washed using three 20 μl washes with an external buffer, and the values C-fast and C-slow were adjusted twice using the “Auto E” buttons.
The sensitivity of reading was adjusted by changing the gain from 2.0 to 0.5.
To initiate recording, the “Ramp” protocol was initiated, and currents were recorded for several minutes until the signal remained stable for both inward and outward currents.
For TRPV3-mu transfected nHEK cells, a similar procedure was used, but with “Fragile protocol”, and the addition of the antagonist at the step of sealing.
Nanion's system automatically maintained cells in the holding potential of −40 mV. Then the voltage was ramped from […] for 160 ms. Finally, the voltage was stepped back to the holding potential (−40 mV). This voltage command protocol was repeated in cycles of 400 ms (FIG. 1).
The solution was then gently mixed and current recording resumed.
Within each cellular recording, the percent of control values were calculated for each test compound concentration-current response based on peak current in the presence of the agonist and full response.
Target sequence in this assay (Q8NET8 whole entry, looked up): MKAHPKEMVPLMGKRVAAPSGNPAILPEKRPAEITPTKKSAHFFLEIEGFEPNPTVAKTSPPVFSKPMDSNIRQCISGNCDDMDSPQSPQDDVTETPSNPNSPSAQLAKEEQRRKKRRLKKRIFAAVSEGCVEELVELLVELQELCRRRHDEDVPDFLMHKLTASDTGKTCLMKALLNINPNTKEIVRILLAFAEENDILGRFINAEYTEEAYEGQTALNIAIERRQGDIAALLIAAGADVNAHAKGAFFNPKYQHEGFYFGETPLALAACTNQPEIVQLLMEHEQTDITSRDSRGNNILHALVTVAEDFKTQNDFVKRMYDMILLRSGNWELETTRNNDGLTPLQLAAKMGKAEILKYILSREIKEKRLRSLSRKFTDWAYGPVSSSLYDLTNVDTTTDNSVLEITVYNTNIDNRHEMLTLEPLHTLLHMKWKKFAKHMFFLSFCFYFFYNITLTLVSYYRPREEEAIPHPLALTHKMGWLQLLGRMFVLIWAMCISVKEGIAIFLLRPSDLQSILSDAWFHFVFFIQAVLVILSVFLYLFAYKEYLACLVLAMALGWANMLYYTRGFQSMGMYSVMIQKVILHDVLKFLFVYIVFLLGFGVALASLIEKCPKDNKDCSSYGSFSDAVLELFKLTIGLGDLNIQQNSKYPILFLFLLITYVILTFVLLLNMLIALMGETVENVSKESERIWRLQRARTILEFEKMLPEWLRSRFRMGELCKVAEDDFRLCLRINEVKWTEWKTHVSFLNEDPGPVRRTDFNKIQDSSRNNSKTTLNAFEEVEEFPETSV

In series [2] the target is T1, hTRPV3. Nature of the series: Whole-cell patch clamp, hTRPV3 Phase 1 / Phase 2 currents. In kind it is cell-based. In a few lines: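 Whole-cell recordings on induced TRPV3 cells replated on coverslips, held at −40 mV with 400 ms ramps from −120 to +100 mV every 5 s; currents read at −80 and +80 mV. Ringer's external solution; current activated by heating to ≥28 °C or 20 μM 2-APB.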
Target sequence in this assay (Q8NET8 whole entry): as the sequence (Q8NET8 whole entry, looked up) above
In general terms: Patch clamp records ionic current or voltage across a cell membrane.

In the next series the target is rat (r) TRPV3 (Rattus norvegicus, UniProt E9PU00). Nature of the series: Whole-cell patch clamp, rTRPV3 Phase 1 / Phase 2 currents. In kind it is cell-based. From the text:
Whole-cell patch clamp experiments permit the detection of currents through the TRPV3 channel in the cell line described above. A glass electrode is brought into contact with a single cell and the membrane is then ruptured, permitting control of the voltage of the cell membrane and measurement of currents flowing across the membrane using the amplifier attached to the electrode. A perfusion system permits control of the extracellular solution, including the addition of blockers and activators of the current. The current can be activated by heating this solution to 28° C. or warmer or by addition of 20 μM 2-APB to the solution.
TRPV3 cells were induced 20-48 hours, removed from growth plates, and replated at low density (to attain good single-cell physical separation) on glass coverslips for measurement. In some cases, cells were grown in low density overnight on glass coverslips. Patch clamp recordings were made in the whole-cell mode with a holding potential of −40 mV. Every 5 seconds, a voltage ramp was applied from −120 to +100 mV, 400 ms in duration. Currents elicited were quantified at −80 mV and +80 mV. The internal solution consisted of 140 mM cesium aspartate, 10 mM EGTA, 2.27 mM MgCl2, 1.91 mM CaCl2) and 10 mM HEPES, pH to 7.2 with KOH; with 50 nM calculated free […]. External solution was Ringer's solution described above. Upon addition of 2-APB or upon heating of the extraceullar solution as described above, TRPV3 current was induced only in TRPV3-expressing cells and not in parental HEK293 TREx cells. […] Removal of the stimulus caused most of the current to go away, and inhibitor addition could still inhibit this current.
In Tables 3 and 4, Phase 1 refers to Phase 1 current for human (h) TRPV3 or rat (r) TRPV3, and Phase 2 refers to Phase 2 current for human (h) TRPV3 or rat (r) TRPV3. The hTRPV3 and rTRPV3 assays were performed as described herein. hERG refers to the inhibition the human ERG (hERG) channel. NaV1.5, refers to the pore forming aL-subunit of the voltage-dependent cardiac Na(+) channel and is an integral membrane protein involved in the initiation and conduction of action potentials. hTRPV3 HAMA IC50 refers to the IC50 of TRPV3 cells stably expressed in TRex-293 cells. Solubility Ringer refers to the compounds' solubility in Ringer's solution. LM T1/2 refers to liver microsome half-lives in either rat or human liver microsomes. FLIPR IC50 refers to the IC50 of the test compounds against recombinant hTRPV3 cells.

Series [3] can be described thus: Aqueous solubility assay in Normal Ringer Solution. Here is the method:
Following vortex and incubation for a sufficient time (e.g. 40 minutes at room temperature), solutions were filtered, quenched with acetonitrile, and analyzed by Liquid Chromotography. Solubility Limits were determined by comparison to a standard curve.

Series [4] is described as follows: Metabolic Stability assay, rat liver microsomes. To be noted: read-out: LM T1/2 (min) (rat). In kind it is in vitro ADME. An outline of the steps:
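Test article at 1 μM starting concentration incubated with human or rat liver microsomes at 37 °C, with the reaction started by NADPH regeneration components. Aliquots were quenched in cold acetonitrile/MeOH/H2O at 0, 7, 15, 30 and 60 min and analysed by HPLC/MS/MS.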
In general terms: Liver microsomes are a subcellular fraction often used to study metabolism.

For series [5], the target named is T1, hTRPV3. Nature of the series: hTRPV3 HAMA IC50 assay (Hamamatsu FDSS6000 calcium flux, TRex-293 cells). The settings on record: 5 min.
Target sequence in this assay (Q8NET8 whole entry): as the sequence (Q8NET8 whole entry, looked up) above
Method: IC50s were calculated using CBIS from ChemInnovation (San Diego).
Where [6] appears, read: Phase 1 current, inward, whole-cell patch clamp, read-out: hTRPV3 Patch P1 Inwd.
Where [7] appears, read: Phase 1 current, read-out: hTRPV3 (nM) (Phase 1).
Where [8] appears, read: Phase 1 current, read-out: rTRPV3 (nM) (Phase 1).
Setting [9] is: Phase 2 current, read-out: rTRPV3 (nM) (Phase 2).

Values after ≈ are worked out from the molar mass of the structure shown. Read-outs that look alike come from different tables or passages of the source. Some results are limits rather than exact numbers.

The record followed here is patent US12435061B2 (priority 2020, dated 2025).

The term solubility denotes how much of the substance goes into solution per volume. Read a high solubility as a readily soluble substance.

Sequence of rat (r) TRPV3 (E9PU00 1-791): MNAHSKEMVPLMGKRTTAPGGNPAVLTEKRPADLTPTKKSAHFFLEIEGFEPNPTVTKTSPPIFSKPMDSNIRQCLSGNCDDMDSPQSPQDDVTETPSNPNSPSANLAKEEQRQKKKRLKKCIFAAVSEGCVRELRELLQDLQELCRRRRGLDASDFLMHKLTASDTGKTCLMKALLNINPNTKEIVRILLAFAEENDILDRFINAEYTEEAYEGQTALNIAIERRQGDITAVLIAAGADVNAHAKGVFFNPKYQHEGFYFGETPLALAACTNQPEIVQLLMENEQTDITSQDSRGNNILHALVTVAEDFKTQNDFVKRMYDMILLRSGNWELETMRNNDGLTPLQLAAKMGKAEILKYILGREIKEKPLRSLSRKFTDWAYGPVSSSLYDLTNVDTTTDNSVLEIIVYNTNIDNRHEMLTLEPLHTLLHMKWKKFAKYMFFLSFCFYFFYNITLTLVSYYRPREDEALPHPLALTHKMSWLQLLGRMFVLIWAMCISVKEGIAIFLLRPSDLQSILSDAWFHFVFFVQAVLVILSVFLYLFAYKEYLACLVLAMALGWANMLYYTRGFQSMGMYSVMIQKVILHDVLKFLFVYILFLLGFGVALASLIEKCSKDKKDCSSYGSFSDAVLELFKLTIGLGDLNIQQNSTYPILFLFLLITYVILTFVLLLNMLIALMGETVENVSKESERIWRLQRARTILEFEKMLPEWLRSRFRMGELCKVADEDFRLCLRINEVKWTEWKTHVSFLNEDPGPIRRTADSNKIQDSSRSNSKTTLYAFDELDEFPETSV

On to `Cc1cncc(C(=O)N2CC[C@H](c3ccc(-c4ccccc4C4CC4)cc3CO)C2)n1` (stereo in doubt) [KM-032-E1, [3-(2′-Cyclopropyl-3-hydroxymethyl-biphenyl-4-yl)-pyrrolidin-1-yl]-(6-methyl-pyrazin-2-yl)-methanone], for which the IC50 against hTRPV3 [1] is 0.01 to 0.1 µM.
For `OCc1cc(C(O)c2ccccc2Cl)ccc1N1CC[C@H](Oc2ncccc2Cl)C1` (stereo partly drawn) [Compound 1-262, (2-chlorophenyl)(4-((S)-3-(3-chloropyridin-2-yloxy)pyrrolidin-1-yl)-3-(hydroxymethyl)phenyl)methanol], the IC50 on hTRPV3 [2] (setting [6]) was 10 to 100 nM; at hTRPV3 [2] (setting [7]), 23.7 nM; at rat (r) TRPV3 (setting [8]) it was roughly 20 nM; on rat (r) TRPV3 (setting [9]) it was 21.3 nM. The solubility at 40 min in series [3] (saline or isotonic, kinetic from dmso stock) was roughly 4.7 µM (≈ 2.09 µg/mL). For the same molecule, in series [4], the half-life at 1 μM was 14.6 min.
At hTRPV3 [1], `CC(C)c1ccccc1-c1ccc([C@H]2CCN(C(=O)c3ccc(F)cn3)C2)c(CO)c1` (stereo in doubt) [KM-002-E1, (5-Fluoro-pyridin-2-yl)-[3-(3-hydroxymethyl-2′-isopropyl-biphenyl-4-yl)-pyrrolidin-1-yl]-methanone] returned an IC50 of less than 0.01 µM.
The same measure, in the same setting: the value for `COc1cncc(C(=O)N2CCC(c3ccc(-c4cccc5c4CCC5)cc3CO)C2)n1` (stereo not drawn) [KM-071, [3-(2-Hydroxymethyl-4-indan-4-yl-phenyl)-pyrrolidin-1-yl]-(6-methoxy-pyrazin-2-yl)-methanone] was 0.01 to 0.1 µM; that for `Cc1nc(C(=O)N2CCC(c3ccc(-c4ccc(F)cc4C4CC4)cc3CO)C2)ccc1O` (stereo not drawn) [KM-084] was 0.01 to 0.1 µM.
`Cc1nc(C(=O)N2CC[C@H](c3ccc(-c4ccccc4C4CC4)cc3CO)C2)ccc1O` (stereo in doubt) [KM-023-E1, [3-(2′-Cyclopropyl-3-hydroxymethyl-biphenyl-4-yl)-pyrrolidin-1-yl]-(5-hydroxy-6-methyl-pyridin-2-yl)-methanone]: the IC50 against hTRPV3 [1] is less than 0.01 µM.
Take `Cc1nc(C(=O)N2CCC(c3ccc(-c4cc(F)ccc4C4CC4)cc3CO)C2)ccc1O` (stereo not drawn) [KM-085]: at hTRPV3 [1], the IC50 is less than 0.01 µM.
Turning to `NC(=O)c1cc(-c2ccc(F)cc2)ccc1N1CC[C@H](Oc2ccc(C(F)(F)F)cn2)C1` [Compound 1-65, (S)-4′-fluoro-4-(3-(5-(trifluoromethyl)pyridin-2-yloxy)pyrrolidin-1-yl)biphenyl-3-carboxamide], the IC50 is 100 to 1000 nM on hTRPV3 [2] (setting [6]); 475 nM at hTRPV3 [2] (setting [7]); 100 to 1000 nM on hTRPV3 [2] (Phase 2 current, inward, whole-cell patch clamp, read-out: hTRPV3 Patch P2 Inwd); 417 nM at hTRPV3 [2] (Phase 2 current, read-out: hTRPV3 (nM) (Phase 2)); 1140 nM on rat (r) TRPV3 (setting [8]); 3250 nM on rat (r) TRPV3 (setting [9]). Besides, the “Solubility Ringer (nM)” value in series [3] (Normal Ringer Solution, room temperature) is reported as “BLQ”. Besides, in series [4], the half-life at 1 μM came out at 77.3 min. Also, the “hTRPV3 HAMA IC50 (nM) (5 min)” value on hTRPV3 [5] is on record as “no fit (5 min)”.
Take `NC(=O)c1cc(-c2ccccc2)ccc1N1CC[C@@H](Oc2ccc(C(F)(F)F)cn2)C1` [Compound 1-33, (R)-4-(3-(5-(trifluoromethyl)pyridin-2-yloxy)pyrrolidin-1-yl)biphenyl-3-carboxamide]: the IC50 on hTRPV3 [2] (setting [6]) is 100 to 1000 nM; at hTRPV3 [2] (setting [7]), 139 nM; at rat (r) TRPV3 (setting [8]) it was 283 nM; on rat (r) TRPV3 (setting [9]), 776 nM. On hTRPV3 [5], the “hTRPV3 HAMA IC50 (nM) (5 min)” value is on record as “no fit (5 min)”.
In turn, `CC(C)c1ccccc1-c1ccc([C@@H]2CCN(C(=O)c3ccc(F)cn3)C2)c(CO)c1` [KM-002-E2] came in with an IC50 against hTRPV3 [1] of 0.01 to 0.1 µM.
On the same count and under the same terms, the value for `COCc1cccc(C(=O)N2CC[C@H](c3ccc(-c4ccccc4C4CC4)cc3CO)C2)n1` (stereo in doubt) [KM-036-E1, [3-(2′-Cyclopropyl-3-hydroxymethyl-biphenyl-4-yl)-pyrrolidin-1-yl]-(6-methoxymethyl-pyridin-2-yl)-methanone] was 0.01 to 0.1 µM; that for `COCc1cncc(C(=O)N2CCC(c3ccc(-c4ccccc4C4CC4)cc3CO)C2)n1` (stereo not drawn) [KM-070, [3-(2′-Cyclopropyl-3-hydroxymethyl-biphenyl-4-yl)-pyrrolidin-1-yl]-(6-methoxymethyl-pyrazin-2-yl)-methanone] was 0.01 to 0.1 µM; that for `CNc1cncc(C(=O)N2CC[C@H](c3ccc(-c4ccccc4C4CC4)cc3CO)C2)n1` (stereo in doubt) [KM-054-E1, [3-(2′-Cyclopropyl-3-hydroxymethyl-biphenyl-4-yl)-pyrrolidin-1-yl]-(6-methylamino-pyrazin-2-yl)-methanone] was less than 0.01 µM.
On the same count and under the same terms, as for `CNc1cncc(C(=O)N2CCC(c3ccc(-c4ccccc4C(C)C)cc3CO)C2)n1` (stereo not drawn) [KM-069, [3-(3-Hydroxymethyl-2′-isopropyl-biphenyl-4-yl)-pyrrolidin-1-yl]-(6-methylamino-pyrazin-2-yl)-methanone], the figure is 0.01 to 0.1 µM; as for `COCc1cccc(C(=O)N2CCC(c3ccc(-c4ccccc4C4CC4)cc3CO)C2)n1` (stereo not drawn) [KM-036], 0.01 to 0.1 µM; as for `COc1cncc(C(=O)N2CC[C@H](c3ccc(-c4ccccc4C4CC4)cc3CO)C2)n1` (stereo in doubt) [KM-031-E1, [3-(2′-Cyclopropyl-3-hydroxymethyl-biphenyl-4-yl)-pyrrolidin-1-yl]-(6-methoxy-pyrazin-2-yl)-methanone], 0.01 to 0.1 µM.
